Measurements published in patent publication US20240150839A1, “METHODS FOR PREDICTING RESPONSIVENESS OF PROSTATE CANCER PATIENTS TO PARP INHIBITORS” (Memorial Sloan Kettering Cancer Center, priority 2019, published 2024).

Assays:
Assay type in all cases: cell-based, human
[1] = tested on: LNCaP-BRCA2-RB1 cells; assay: qPCR of EMT transcription factors after androgen (R1881) treatment; settings: 1 nM R1881, 48 hours in CSS (FIG. 3I)
Protocol: Scr-CRISPR and BRCA2-CRISPR2 cells were also transfected with non-targeting shRNA (scr-Sh) for control of shRNA. GAPDH served as the loading control. […] Nuclei were stained with DAPI (blue). […] Control cells were transfected with empty vector. […] GAPDH served as the loading control. […] LNCaP cells were used as control. GAPDH served as the loading control. […] Nuclei were stained with DAPI (blue). […] Equivalent volume of DMSO was used as placebo treatment. Cell growth was measured by MTT assay; SD, P-values determined by Student's t-test. […] LNCaP-BRCA2-RB1 or control cells were incubated in charcoal-stripped medium (CSS) for 24 hours followed by treatment with 1 nM R1881 for another 48 hours (in CSS). […] Expression of the indicated genes normalized with untreated control and GAPDH. […] Scrambled-SMARTpool siRNA transfected LNCaP cells were used as control. 2.5×10^3 indicated cells (72 hours after indicated siRNA transfection) were plated on the top of Boyden chamber in serum-free media; 10% serum in the bottom chamber was used as chemo-attractant. After 24 hours, cells in the lower side of the chamber were fixed, stained, photographed in 100× magnification (top panel), and counted and represented in the form of the bar graph (bottom panel). P-values were determined by Student's t-test.
RNA Extraction and qPCR. […] All quantifications were normalized to endogenous GAPDH.

[2] = tested on: 22RV1 cells; assay: MTT cell growth with PARPi or cisplatin; settings: 22RV1, BRCA2 T3033Nfs*11, RB1-wt; cisplatin 500 nM, talazoparib 5 nM, 6 days (FIG. 11D)
Protocol: The ploidy of each cell line is indicated. […] Equivalent volume of DMSO was used as placebo treatment. Cell growth was measured by MTT assay (see Example 1); SD, each point indicates the MTT count of each well of 96-well plate, P-values determined by Student's t-test. **P<0.01, ****P<0.0001. […] Cell Proliferation Assay by MTT, BrdU and Crystal Violet. For MTT assay, cells were plated at 2.5×10^3 per well in 96-well plates in complete media (10% FBS) or media supplemented with 10% charcoal-stripped serum. Cells were either treated with DMSO or with indicated inhibitors. After indicated times, cells were incubated in 0.5 mg/mL MTT (Invitrogen) for 1 hour at 37° C. MTT crystals were dissolved in isopropanol and absorbance was measured in a BioTek plate reader at […] and represented graphically.

[3] = tested on: BRCA2-null LNCaP cells; assay: MTT cell growth of BRCA2 CRISPR-edited LNCaP cells with PARP inhibitors or cisplatin; settings: BRCA2 knockout LNCaP vs control gRNA (scr) cells; complete medium, 6 days (FIG. 7C)
Protocol: Cells infected with scrambled (scr) gRNA were used as control. Equal amount of proteins was loaded in WedgeWell 6% gel and western blot was performed. ˜400 kDa BRCA2 band is indicated by arrow. GAPDH served as loading controls for western blot and qPCR. […] Genotypes are detected by PCR amplification followed by being treated with T7 endonuclease. Wt and mutant BRCA2 are indicated by red and green arrows, respectively. […] Equivalent volume of DMSO was used as placebo treatment. Cell growth was measured by MTT assay (see Example 1); SD, P-values determined by Student's t-test. *P<0.05, **P<0.01, ***P<0.001. FIGS. 7D-7E show the growth curve (FIG. 7D) and a bar graph (FIG. 7E) representing the cell growth of LNCaP BRCA2 CRISPR-edited and non-targeting control gRNA (scr) infected cells in complete medium supplemented with enzalutamide (ENZ; indicated concentration) for 7 days or charcoal-stripped medium (CSS) for 5 days, respectively. Equivalent volume of DMSO was used as placebo treatment. Cell growth was measured by crystal violet staining assay (see Example 1) (±SD); P-values determined by Student's t-test. […] Equivalent volume of DMSO was used as placebo treatment. Cell growth was measured by MTT assay (see Example 1) (±SD); P-values determined by Student's t-test. […] Total RNA was isolated, and BRCA2 mRNA was analyzed by qPCR. […] Cell growth was measured by MTT assay; SD, P-values determined by Student's t-test.
To generate BRCA2 knockout RWPE1 cells, BRCA2 gRNA2 was cloned into LentiCRISPRv2-GFP backbone which constitutively expresses Cas9 and GFP. Lentiviral infected cells were selected by FACS sorting for GFP positive cells (twice) and analyzed by western blot. […] Loss of BRCA2 in the pooled populations of LNCaP cells was analyzed by western blot using BRCA2-specific antibodies and this pooled population of cells was used for the following experiments. […]
Cell Proliferation Assay by MTT, BrdU and Crystal Violet. […] MTT crystals were dissolved in isopropanol and absorbance was measured in a BioTek plate reader at […] and represented graphically.

SMILES | SLUG mRNA (qPCR) [1] | sensitivity (cell growth, MTT) [2] | sensitivity (cell growth, MTT) [3]
C[C@]1(O)CC[C@H]2[C@@H]3CCC4=CC(=O)CCC4=C3C=C[C@@]21C [R1881] | significantly increased |  | 
N.N.[Cl][Pt][Cl] [cisplatin] |  | sensitivity | enhanced sensitivity
